The assay concerns the target mKv1.3 (Mus musculus, UniProt P16390). The assay can be described thus: cell-based.

mKv1.3, sequence (P16390 whole entry): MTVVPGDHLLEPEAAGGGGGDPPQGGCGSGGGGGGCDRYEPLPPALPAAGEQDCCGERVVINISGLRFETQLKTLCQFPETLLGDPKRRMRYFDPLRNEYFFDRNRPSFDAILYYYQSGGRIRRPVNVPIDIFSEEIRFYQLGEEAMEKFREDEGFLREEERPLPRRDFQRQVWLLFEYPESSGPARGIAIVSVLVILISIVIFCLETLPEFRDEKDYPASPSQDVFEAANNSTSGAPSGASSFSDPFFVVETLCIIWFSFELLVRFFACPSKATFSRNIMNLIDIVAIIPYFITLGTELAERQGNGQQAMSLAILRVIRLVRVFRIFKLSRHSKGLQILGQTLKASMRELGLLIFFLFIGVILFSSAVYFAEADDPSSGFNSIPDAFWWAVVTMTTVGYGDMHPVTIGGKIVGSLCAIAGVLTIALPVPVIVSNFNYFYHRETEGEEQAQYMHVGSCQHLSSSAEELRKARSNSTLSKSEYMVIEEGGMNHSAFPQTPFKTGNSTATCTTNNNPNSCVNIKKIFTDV

In turn, `CC[C@H](C)[C@@H]1NC(=O)[C@@H](NC(=O)[C@H](CO)NC(=O)[C@@H](N)CCCNC(=N)N)CSSC[C@@H](C(=O)O)NC(=O)[C@H]([C@@H](C)O)NC(=O)CNC(=O)[C@@H]2CSSC[C@@H]3NC(=O)[C@H](CCC(N)=O)NC(=O)[C@H](Cc4ccccc4)NC(=O)[C@H](C)NC(=O)[C@H]([C@@H](C)O)NC(=O)[C@H](CSSC[C@H](NC(=O)[C@H](Cc4ccccc4)NC(=O)[C@H](CO)NC(=O)[C@H](CC(C)C)NC(=O)[C@H](CCCNC(=N)N)NC(=O)[C@H](Cc4ccc(O)cc4)NC(=O)[C@H](CCCCN)NC(=O)[C@H](CCSC)NC(=O)[C@H](CO)NC(=O)[C@H](Cc4cnc[nH]4)NC(=O)[C@H](CCCCN)NC3=O)C(=O)N[C@@H](CCCNC(=N)N)C(=O)N[C@@H](CCCCN)C(=O)N[C@@H]([C@@H](C)O)C(=O)N2)NC(=O)[C@H](CCCNC(=N)N)NC(=O)[C@H](CO)NC(=O)[C@H](CCCCN)NC(=O)[C@@H]2CCCN2C(=O)[C@H]([C@@H](C)CC)NC(=O)[C@H]([C@@H](C)O)NC(=O)[C@H](CC(=O)O)NC1=O` [ShK] returned an IC50 of 9.3 ± 2 pM.

As usually defined, the IC50 is the concentration needed to halve the response being measured.

The record behind these values is article PMC3820677 (PLoS ONE, 2013).
